Measured values: patent publication US11638737B2, “Food compositions and pharmaceutical compositions containing Filipendula glaberrima extract for lowering blood cholesterol levels and for ameliorating atherosclerosis” (KOREA INSTITUTE OF SCIENCE AND TECHNOLOGY, priority 2019, dated 2023)
≈ marks a conversion by molar mass, not a printed value.

Legend:
[1] = DPPH radical scavenging effect; conditions: samples marked (μM); read-out: SC50 DPPH radical
Excerpt: Data are expressed as an average of measurements conducted in triplicate.

[2] = Xanthine/xanthine oxidase-induced superoxide anion scavenging effect; assay type: biochemical; conditions: samples marked (μM); read-out: SC50 Superoxide anion radical (O2−)
Protocol: Specifically, 0.1 mM xanthine, 0.1 mM EDTA, 50 μg/ml of bovine serum albumin (BSA), […] nitroblue tetrazolium (NBT), a 40 mM Na2CO3 solution, a test sample solution diluted at each concentration and a solution with a final volume of 200 μl containing 1.4×10^−3 unit XOD were mixed and reacted at 25° C. for 20 minutes.

HMG-CoA reductase = target: T1, HMG-CoA reductase (Homo sapiens, UniProt P04035); test: HMG-CoA reductase inhibitory effect (modified Perchellet's assay, absorbance at 340 nm); assay type: biochemical; conditions: mean ± standard error; values without (μM) mark
T1 construct: purchased Sigma-Aldrich (St. Louis, Mo.)
T1 sequence (P04035 426-888 limits assumed): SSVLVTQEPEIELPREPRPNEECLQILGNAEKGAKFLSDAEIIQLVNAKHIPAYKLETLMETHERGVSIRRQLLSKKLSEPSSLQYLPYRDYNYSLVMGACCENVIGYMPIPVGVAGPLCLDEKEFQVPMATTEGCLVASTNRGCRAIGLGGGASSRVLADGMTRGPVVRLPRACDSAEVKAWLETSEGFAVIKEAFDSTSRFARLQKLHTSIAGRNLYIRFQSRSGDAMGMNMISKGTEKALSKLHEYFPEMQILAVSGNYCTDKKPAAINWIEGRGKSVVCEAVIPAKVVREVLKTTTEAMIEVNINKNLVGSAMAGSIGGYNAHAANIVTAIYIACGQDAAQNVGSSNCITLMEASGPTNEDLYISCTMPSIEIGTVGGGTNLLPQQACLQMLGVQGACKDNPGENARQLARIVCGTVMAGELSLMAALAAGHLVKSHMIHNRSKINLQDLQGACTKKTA
Protocol: Transparent 96-well plates were purchased from SPL Lifesciences (Pocheon). A VERSA Max™ microplate reader from Molecular Devices was used.
The sample for detection was dissolved in DMSO before use.
The activity of HMG-CoA reductase was compared and analyzed by recording the absorbance at 340 nm at 37° C. for 10 minutes using a VERSA Max™ microplate reader. […] The experiment was repeated three times.

[3] = tested on: lipid peroxide formation in liver homogenate; test: Lipid peroxide production inhibitory effect (LPO) in rat liver homogenate; assay type: biochemical, Sprague-Dawley rats; conditions: for IC50: samples marked (μM)
Protocol: The lipid peroxide production inhibitory effect (LPO) of the extract and the isolated compounds were tested. Lipid peroxide is a substance produced by peroxidation of lipids through various oxidation reactions. Reactive oxygen species, free radicals and the like oxidize phospholipids of cell membranes containing great amounts of unsaturated fatty acids, producing lipid peroxides in the cell membranes. When the lipid peroxides are accumulated in the cell membranes, the fluidity and functionality of the cell membrane are deteriorated, resulting in local disorders in tissues such as inhibition of cell functions and changes in cell structures.
Therefore, the effects of inhibiting lipid peroxide production by the Filipendula glaberrima leaf and stem extracts and the isolated compounds were measured as follows. The animals used in the experiment were male Sprague-Dawley rats, and only water was supplied for 24 hours before the experiment. […] The experimental animals were subjected to respiratory anesthesia with isoflurane, and dissected and a 0.15 M ice-cold KCl solution was perfused through the liver portal vein to remove blood from the liver and extract the liver. […] 50 mM Tris-HCl buffer (pH 7.5) was added to 300 μl of a liver homogenate (11 mg protein/ml), 10 μM FeSO4, 10 μl of a test drug and 0.4 mM ascorbic acid to adjust the total volume to 1 ml, and then the resulting mixture was incubated at 37° C. for 30 minutes.

## O=C1O[C@H]([C@@H](O)CO)C(O)=C1O [Vit. C, ascorbic acid]
[1]
  IC50: 29.3 ± 2.49 µM
[2]
  IC50: > 50 µM

## C[C@@H]1CC[C@]2(C(=O)O[C@@H]3OC(COC(=O)c4cc(O)c(O)c(O)c4)[C@@H](O)[C@H](O)C3O)CC[C@]3(C)C(=CC[C@@H]4[C@@]5(C)C[C@@H](O)[C@H](O)C(C)(C)[C@@H]5CC[C@]43C)[C@@H]2[C@]1(C)O (some centres unmarked) [Compound 1]
[1]
  IC50: 47.88 ± 0.01 µM
HMG-CoA reductase
  IC50: 175 ± 2.2 µM
[3]
  IC50: 89 ± 3.69 µM

## O=c1c(O)c(-c2ccc(O)c(O)c2)oc2cc(O)cc(O)c12 [Quercetin]
[1]
  IC50: 19 ± 2.25 µM
[2]
  IC50: > 50 µM
[3]; rat liver homogenate, FeSO4/ascorbic acid, TBA, 535 nm
  IC50 LPO: 29.57 ± 1.32 µg/mL (≈ 97.8 µM)
[3]
  IC50: 29.6 ± 1.32 µM

## COC(=O)c1cc(O)c(O)c(O)c1Oc1cc2c(c(O)c1O)-c1c(cc(O)c(O)c1O)C(=O)O[C@@H]1C(COC2=O)OC(O)C(OC(=O)c2cc(O)c(O)c(O)c2)C1OC(=O)c1cc(O)c(O)c(O)c1 (some centres unmarked) [Compound 2]
[1]
  IC50: 3.62 ± 0.57 µM
HMG-CoA reductase
  IC50: 1.46 ± 0.22 µM
[2]
  IC50: 41.1 ± 2.24 µM
[3]
  IC50: 7.99 ± 0.05 µM

## Oc1ccc(C=Cc2cc(O)cc(O)c2)cc1 [Resveratrol]
[3]
  IC50: 35.64 ± 0.01 µM

## Cc1c(C)c2c(c(C)c1O)CCC(C)(C(=O)O)O2 (centres unmarked) [Trolox]
[1]
  IC50: 47.5 ± 0.41 µM
[2]
  IC50: > 50 µM
[3]
  IC50: > 50 µM
